Experimental data from patent US8106055B2, “Substituted amide compounds” (Gruenenthal GmbH, priority 2007, dated 2012).

The compounds below were run against T1, bradykinin 1 receptor (B1R) of the rat (Rattus norvegicus, UniProt P97583) (assay: Functional investigation on the rat bradykinin 1 receptor (B1R), Ca2+ FLIPR assay in CHO K1 rB1R cells). Details: B1R antagonism rat; test substance 10 μM; Ca2+ FLIPR, CHO K1 rB1R cells.
T1 construct: expressed in transfected cells; host or cells: CHO K1 cells
T1 sequence (P97583 1-337): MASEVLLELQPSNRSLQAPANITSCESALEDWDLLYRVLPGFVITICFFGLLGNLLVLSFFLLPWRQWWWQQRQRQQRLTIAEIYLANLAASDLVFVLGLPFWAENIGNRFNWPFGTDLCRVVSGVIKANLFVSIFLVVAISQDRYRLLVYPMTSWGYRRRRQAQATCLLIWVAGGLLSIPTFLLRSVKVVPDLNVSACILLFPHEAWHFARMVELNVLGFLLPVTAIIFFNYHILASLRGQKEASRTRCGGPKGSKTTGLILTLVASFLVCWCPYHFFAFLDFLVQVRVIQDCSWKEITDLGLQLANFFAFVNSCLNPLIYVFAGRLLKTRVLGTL
Type: cell-based
Method in brief: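 Fluo-4 Ca2+ readout, peak fluorescence. Stable CHO K1 transfectants; compound pre-incubated 10-20 min, then EC80 agonist—Lys-Des-Arg9-BK for hB1R, Des-Arg9-BK for rB1R. % inhibition vs maximal inhibition; IC50 from multiple concentrations, duplicate/triplicate, ≥2 independent runs.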

SMILES	B1R Ant. r [10 μM] % Inhibition [%]
COc1cc(C)c(S(=O)(=O)N(CCOCC(=O)NCCC2CCC(C(c3ccc(Cl)cc3)N(C)C)CC2)Cc2ccccc2)c(C)c1C (stereo not drawn) [Example 576]	3
CN(C)C(c1ccc(F)cc1)C1CCC(CNC(=O)COCCC2CCN(S(=O)(=O)c3ccccc3)CC2)CC1 (stereo not drawn) [Example 583]	20
COc1cc(C)c(S(=O)(=O)N2CCC(OCC(=O)NCC3CCC(C(CCc4ccccc4)N(C)C)CC3)CC2)c(C)c1C (stereo not drawn) [Example 546]	59
COc1cc(C)c(S(=O)(=O)N2CCCC(OCC(=O)NCC3CCC(C(CCc4ccccc4)N(C)C)CC3)C2)c(C)c1C (stereo not drawn) [Example 551]	36

Same assay, conditions: CHO-K1, B1R antagonism rat; test substance 10 μM; Ca2+ FLIPR, CHO K1 rB1R cells; read-out: B1R Ant. r [10 μM] % Inhibition

SMILES	inhibition at 10 µM [%]
COc1ccc(S(=O)(=O)N2CCCCC2COCC(=O)NCCC2CCC(C(c3cccs3)N(C)C)CC2)c(OC)c1 (stereo not drawn) [Example 107, 2-((1-(2,4-dimethoxyphenylsulfonyl)piperidin-2-yl)methoxy)-N-(2-(4-((dimethylamino)(thiophen-2-yl)methyl)cyclohexyl)ethyl)acetamide]	49
CN(C)C(c1ccccc1)C1CCC(NC(=O)COCCN(C)S(=O)(=O)c2c(Cl)cccc2Cl)CC1 (stereo not drawn) [Example 135, 2-(2-(2,6-dichloro-N-methylphenylsulfonamido)ethoxy)-N-(4-((dimethylamino)(phenyl)methyl)cyclohexyl)acetamide]	29
